Values quoted from earlier work, collected in patent US20240408074A1, “METHODS FOR THE TREATMENT AND PREVENTION OF NON-VIRAL TICK-BORNE DISEASES AND SYMPTOMS THEREOF OF” (60 DEGREES PHARMACEUTICALS LLC, priority 2023, published 2024).

Tests used:
P. falciparum [1] = settings: 250 mg/day, cited from earlier work
[2] = test system: Trypanosome brucei blood stage forms; settings: exposure for 90 minutes; cited from earlier work
Leptospira = settings: exposure for as little as 30 min; cited from earlier work
Babesia parasites = settings: 2 h; formation of large vacuoles; cited from earlier work
[3] = test system: P. falciparum gametocytes; settings: Example 5; single dose of primaquine combined with dihydroartemisinin/piperaquine, or dihydroartemisinin-piperaquine alone; cited from earlier work
Leishmania major = settings: intracellular amastigote forms; cited from earlier work
P. falciparum [4] = settings: in vivo; cited from earlier work
Trypanosoma brucei = settings: extracellular blood stage forms; cited from earlier work
Plasmodium vivax = settings: 400 mg/day for three days, cited from earlier work
Plasmodium falciparum = settings: 600 mg loading dose then 200 mg; parasite load three days after last dose; all control subjects developed parasitemia; cited from earlier work
[5] = test system: free-living gram-negative bacteria and free-living gram-positive bacteria; settings: gram-negative versus gram-positive; cited from earlier work
B. rodhaini = settings: cited from earlier work
B. microti = settings: one patient; prior rituximab; tafenoquine at approved malaria prevention dose as monotherapy for six weeks; cited from earlier work
[6] = 600 mg over three days then 200 mg weekly for up to one year; reversible, not clinically significant; cited from earlier work
[7] = immunocompromised SCID mice, single dose of 20 mg/kg

Structure (SMILES): CC[C@H]1OC(=O)[C@H](C)[C@@H](O[C@H]2C[C@@](C)(OC)[C@@H](O)[C@H](C)O2)[C@H](C)[C@@H](O[C@@H]2O[C@H](C)C[C@H](N(C)C)[C@H]2O)[C@](C)(O)C[C@@H](C)CN(C)[C@H](C)[C@@H](O)[C@]1(C)O [Azithromycin]
- Protective Efficacy (%) Relative to Placebo, PF/Non-immune or Malaria-naïve (P. falciparum [1]; non-immune or malaria-naïve (Taylor)): 72% (Taylor)
- Protective Efficacy (%) Relative to Placebo, Pf/Semi-Immune (P. falciparum [1]; semi-immune (Anderson)): 83% (Anderson)

Structure (SMILES): OO [hydrogen peroxide]
- concentration that kills blood stage forms [2]: approximately 140 microM
- concentration that killed various serovars (Leptospira): < 180 µM
- concentration that kills Babesia parasites in vitro (Babesia parasites): 100 µM

Structure (SMILES): COc1cc(NC(C)CCCN)c2ncccc2c1 (stereo not shown) [primaquine]
- time until gametocytes non-infectious to mosquitoes at a level statistically lower than reference values [3]: two days post-dosing

Structure (SMILES): COc1cc(C)c2c(Oc3cccc(C(F)(F)F)c3)c(OC)cc(NC(C)CCCN)c2n1 (stereo not shown) [tafenoquine, N(4)-[2,6-Dimethoxy-4-methyl-5-[3-(trifluoromethyl)phenoxy]quinolin-8-yl]pentane-1,4-diamine]
- potency of killing (Leishmania major): < 4 µM
- activity against the blood stages of P. falciparum (P. falciparum [4]): quite effective
- potency of killing (Trypanosoma brucei): < 4 µM
- day by which all patients cleared blood stage parasites (Plasmodium vivax; monotherapy): ≤ 8 days
- relapses during the follow up period (Plasmodium vivax; patients for whom data was available): no relapses
- subjects who developed blood stage parasitemia (Plasmodium falciparum): none
- activity against free-living bacteria [5]: much less active against free-living gram-negative bacteria than free-living gram-positive bacteria
- parasitemia (B. rodhaini; Balb/c (immunocompetent) mice, single dose of 20 mg/kg): cleared parasitemia
- survival (B. rodhaini; Balb/c (immunocompetent) mice, single dose of 20 mg/kg, infection uniformly lethal in untreated animals): 100%
- death (B. rodhaini; [7]): delayed not prevent
- parasitemia and relapses (B. rodhaini; [7]): cleared initial parasitemia but did not prevent relapses
- vacuole formation in B. rodhaini blood stages (B. rodhaini; mice, single dose of 20 mg/kg): induces the formation of large vacuoles
- antioxidant enzymes in B. rodhaini (B. rodhaini; mice, single dose treatment): upregulated
- clearance and cure of Babesia (B. rodhaini; one and three doses, immunocompromised mice and dogs): sufficient to clear and cure Babesia
- outcome of treatment in the patient (B. microti): cured
- specific adverse events with increased risk [6]: gastrointestinal effects [mild to moderate] and cornea verticillata
